Values quoted from earlier work, collected in patent EP0893690B1, “Detection of mycotoxins by flow-through membrane-based enzyme immunoassay” (priority 1997, dated 1999).

How the values were obtained:
[1] = molecular target: monoclonal anti-OA antibody (IgG1 with kappa light chains); settings: association constant of the anti-OA antibody for its antigen OA; read-out: affinity constant (converted)
[2] = tested on: monoclonal anti-OA antibody (IgG1 with kappa light chains); settings: relative to OA; called weak

Row | SMILES | Kd [1] | cross-reaction [2]
1 | C[C@@H]1Cc2c(Cl)cc(C(=O)N[C@@H](Cc3ccccc3)C(=O)O)c(O)c2C(=O)O1 [OA, ochratoxin A] | 0.128 nM | 
2 | C[C@@H]1Cc2ccc(C(=O)N[C@@H](Cc3ccccc3)C(=O)O)c(O)c2C(=O)O1 [ochratoxin B] |  | 9.3%
